Reference: patent US11142543B2 (priority 2016, dated 2021)
Marks after values point to notes of the source that are not given here.

Tests used:
[1] = test system: rats; assay: Tail suspension test in rat model, compound C-11 versus fluoxetine, Example 41; format: in vivo; settings: vs vehicle group, FIG. 4
Method: On the day of the behavioral test, animals were dosed twice and administered orally 4 h and 1 h before the behavioral test. During the experiment, the tail of the rat was hung on a tail suspension test stand about 15 cm away from the ground with a tape or a clip at about 1 cm away from the tail end. […] The experimental time for each group was 6 minutes.

[2] = test system: C57 mice susceptible to social defeat by CD-1 aggressive mice; assay: Social defeated stress (SDS) model, Example 42; format: in vivo; settings: C-11 10 mg/kg gavage every day, fluoxetine 10 mg/kg intraperitoneally every day, 3 weeks
Method: Male CD-1 aged 4-6 months mice which had passed childbearing age were raised separately, allowed to eat freely and adapt to the environment for about one week. Male C57 mice (aged 8-20 weeks differently) were used to screen for aggressive CD-1 mice. The mice screened by C57 were placed directly in the cage of CD-1 for 3 minutes, and the latency period for CD-1 to start showing offensive was recorded, and then the mice screened by C57 were moved out. For each CD-1 mouse, the same C57 was used to screen it three times a day, and different C57-selected mice were selected every day for a total of three days of screening. […] After screening for CD-1 aggressive mice for modeling, each C57 test mouse was exposed to different CD-1 aggressive mice for 10 consecutive days, 10 minutes each day. […] After 10 minutes of contact, the test mice were isolated from the invaders. Test mice and aggressive mice were placed in adjacent sections of the same squirrel cage, separated by a porous transparent plastic baffle, allowing test mice to be exposed under a threatening chronic stress stimulation for the next 24 hours. The control mice were placed in cages having the same structure, but the other side of the baffle was placed with other mice of the same line that were replaced daily. After 24 hours after the end of the last day of the experiment, we evaluated CSDS-induced social behavioral changes and selected all susceptible mice based on previous reports. The social interaction ratio (SI ratio) was calculated according to the following formula: SI ratio=time for the mouse in the interaction area when the aggressor exists/time for the mouse in the interaction area when the aggressor is absent. […] All selected test mice and control mice were then housed individually for 3 weeks. […] The mice in the vehicle group were administered by gavage with 0.5% CMC-Na every day. The SI ratio was assessed once a week.
Two-way ANOVA was used to analyze and LSD method was used for the multiple comparisons of calibration results. The data were expressed in Mean sem. […]

[3] = test system: rats; assay: Forced swimming test in rat model, compound C-11 versus fluoxetine, Example 41; format: in vivo; settings: vs vehicle group, FIG. 3
Method: The rats were placed in a cylindrical jar 24 hours before administration to accommodate the underwater environment for 15 min. On the day of the behavioral test, animals were administered twice and administered orally 4 h and 1 h before the behavioral test. The rats were individually placed in a cylindrical glass jar, timed for 6 minutes, and the number of arm lift was recorded within the last 2 minutes. The rats were then placed in a cylindrical glass jar having 30 cm high and 20 cm in diameter. […] Water temperature was 23° C.-25° C.

[4] = test system: ICR mice; assay: Forced swimming test (FST), Example 38; format: in vivo; settings: gavage 10 mg/Kg for 6 days, t-test
Description: Forced swimming test (FST) to investigate the antidepressant activity of some compounds and some natural products of the present invention
(§1) Male ICR mice (body weight, 20±2 g) used in the experiment were purchased from the Experimental Animal Center of Shanghai Institute of Materia Medica, Chinese Academy of Sciences. They were free access to water and kept at room temperature (23 2) ° C. in natural light. All mice were randomly divided into a blank control group and a test group, with 10 mice in each group and 5 mice/cage. The experiment was started after 3 days of adaptation in the breeding environment. The mice were fasted for 12 hours before the experiment but free access to water. The specific administration method was gavage administration, and the administration dose of the administration group was 10 mg/Kg, and the blank control group was given an equal volume of 0.5% CMC-Na.
Specific procedures: The mice were continuously administered for 6 days, and tested 1 hour after the last administration. Firstly, the spontaneous activity of the mice was measured by the open field method, that is, the mice were individually placed in a cylindrical glass jar for 4 minutes, and the number of lifting arms within the last two minutes was recorded. The mice were then individually placed in a cylindrical glass jar (20 cm high and 14 cm in diameter) with a water depth of 10 cm and a water temperature of 23° C. to 25° C. After mice entered into water, a 6-minute timing was conducted, the cumulative immobility time (the criteria for determining immobility: the mice stopped struggling in the water, or floated with only small limb movements to keep the head float on the water) within the last four minutes was recorded. Each group of mice was operated in parallel.
(§2) Experimental data processing: The experimental results were expressed as mean standard error (x SD). Statistical analysis was performed using t-test to determine whether it was significant. […] Then, the t-test was performed on the experimental index of forced swimming to determine whether it had antidepressant effect.

[5] = test system: ICR mice; assay: Toxicity observed during antidepressant efficacy screening (FST and TST animal batch); format: in vivo; settings: same animal batch as efficacy screening, gavage 10 mg/Kg
Description: as §1
as §1, with “The specific administration method was gavage administration, and the administration dose of the administration group was 10 mg/Kg, and the blank control group was given an equal volume of 0.5% CMC-Na.” left out

[6] = test system: ICR mice; assay: Tail suspension test (TST), Example 39; format: in vivo; settings: gavage 10 mg/Kg for 6 days, t-test
Description: Tail Suspension Test (TST) to Investigate the Antidepressant Activity of Some Compounds and Some Natural Products of the Present Invention
as §1, with “dose” for “dose of the administration group”
Specific procedures: The mice were continuously administered for 6 days, and tested 1 hour after the last administration. Firstly, the spontaneous activity of the mice was measured by the open field method, that is, the mice were individually placed in a cylindrical glass jar for 4 minutes, and the number of lifting arms within the last 2 minutes was recorded. Then the tail of the mice was stick onto the horizontal bar by the tape at 2 cm from the tip of the tail, and the animal eyesight was separated by the surrounding plates. The horizontal bar was about 25 cm from the ground, so that the mouse was about 10 cm from the ground, and the timing was 6 min. The cumulative immobility time within the last 4 minutes was recorded. Each group of mice was operated in parallel.
as §2, with “tail suspension test” for “forced swimming”

[7] = in vivo; settings: male, SD, rat
Method: The healthy male SD rats (about 270 g) were fasted for 10 h before administration, and were free to drink water. […] The time points of blood collection from the eye socket were 30 min, 1 h, 2 h, 4 h, 6 h, 8 h, 10 h, 24 h, 48 h after the administration (n=5). […] The time points of blood collection from the eye socket were 5 min, 10 min, 30 min, 1 h, 2 h, 4 h, 8 h (n=4). The plasma was placed in a heparin-coated centrifuge tube, centrifuged for 10 min (8000 r), and the supernatant was taken and stored in a −80° C. refrigerator. After acetonitrile precipitation treatment, it was detected by HPLC-QQQ. The pharmacokinetic parameters, PK parameters of each mouse were calculated by a non-compartmental model of WinNonlin (Pharsight 6.2, NC, USA). All parameters were represented with Mean S.D. Bioavailability (F)=(AUCOral/DoseOral)/(AUCtail vein/Dosetail vein)

[8] = test system: ICR mice with ethanol-induced memory reproduction disorder
Method: Learning memory is an advanced function of the human and animal brains.
Before the retesting after training, the ethanol solution was administered to the mouse to block the memory reproduction process of the animal, resulting in memory reproduction disorder.
Male ICR mice, 16-18 g, were purchased from Shanghai Sippr-BK laboratory animal Co. Ltd.
40 male mice were randomly divided into 4 groups by Excel, and each group contained 10 animals. The mice in group 1 (blank group) and mice in group 2 (model group) were orally administered (i.g.) with drinking water daily.
After 3 weeks of administration, 1 hour after the last administration, the exercise was performed once in the dark avoidance method. The mice were placed in a dark avoidance box, and placed in the bright room with the back facing the hole. At the same time, the video analysis device was activated, and the animal passed through the hole into the dark room and received an electric shock, and the timing was automatically stopped. The mice were removed and the screen analysis would record the time required for each mouse to experience an electric shock from the bright room to the dark room, which was the latency period. After 24 h, the test was carried out, and 45% ethanol solution (0.1 ml/10 g) was orally administered 30 min before the test. The video analysis system would automatically record all relevant data of the animal. Data were expressed as mean standard deviation (x±s), and data difference statistics were analyzed by one-way variance (ANOVA) or X^2 test. The difference between groups was judged by P<0.05.

[9] = i.g. once a day for three consecutive weeks, donepezil 1.6 mg/kg, C-49 15 mg/kg, n = 10

Question: For `CNCCC(Oc1ccc(C(F)(F)F)cc1)c1ccccc1` (stereo not drawn) [fluoxetine], which “effect on cumulative immobility time of rats in tail suspension test” value (shortened to “effect on cumulative immobility time”) ([1]; dose 1.73 mg/kg oral) is on record?
Answer: Its value is “had no effect”.

Question: And the “effect on cumulative immobility time” value ([1]; dose 3.46 mg/kg oral)?
Answer: The value was “had no effect”.

Question: What about the “effect on cumulative immobility time” value ([1]; dose 6.92 mg/kg oral) of the same compound?
Answer: Its value is “significantly affect the cumulative immobility time”.

Question: What about the mouse social time ([2]; FIG. 5A) of the same compound?
Answer: Its mouse social time is “did not work during the third week of administration”.

Question: And the “social proportion of mice (SI ratio)” value ([2]; FIG. 5B)?
Answer: The value was “not effective after three weeks of administration”.

Question: What about the “effect on immobility time of rats in forced swimming test” value (from here on “effect on immobility time of rats”) ([3]; dose 1.73 mg/kg oral) of the same compound?
Answer: Its value is “had no effect”.

Question: And the “effect on wall climbing behavior of rats in forced swimming test” value ([3]; dose 1.73 mg/kg oral)?
Answer: Its value is “had no effect”.

Question: And the “effect on immobility time of rats” value ([3]; dose 3.46 mg/kg oral)?
Answer: The value was “had no effect”.

Question: And the “effect on wall climbing behavior / wall climbing time of rats in forced swimming test” value ([3]; dose 3.46 mg/kg oral)?
Answer: The value was “had no effect”.

Question: And the “effect on immobility time of rats” value ([3]; dose 6.92 mg/kg oral)?
Answer: The value was “significantly affect”.

Question: And the “effect on wall climbing behavior of rats in forced swimming test” value ([3]; dose 6.92 mg/kg oral)?
Answer: The value was “significantly affect”.

Question: For `C[C@H]1CC[C@@]2(OC1)O[C@H]1C[C@H]3[C@@H]4CC[C@@H]5C[C@H](NC(=O)Nc6ccccc6)CC[C@]5(C)[C@H]4CC[C@]3(C)[C@H]1[C@@H]2C` [compound C-13], which “effect on immobility time of mice in forced swimming test compared with the blank group (in words)” value [4] is on record?
Answer: Its value is “significantly reduce the immobility time”.

Question: With `C[C@H]1CC[C@@]2(OC1)O[C@H]1C[C@H]3[C@@H]4CC[C@@H]5C[C@@H](NC(=O)NC6CCCCC6)CC[C@]5(C)[C@H]4CC[C@]3(C)[C@H]1[C@@H]2C` [compound C-12] as the compound, how does the toxicity observed [5] read?
Answer: The toxicity observed was “No significant toxicity was observed”.

Question: And the “effect on immobility time of mouse in tail suspension test compared with the blank group (in words)” value [6]?
Answer: The value was “significant antidepressant activity”.

Question: And the “effect on immobility time of mice in forced swimming test compared with the blank group (in words)” value [4]?
Answer: The value was “significant antidepressant activity”.

Question: Which “effect on immobility time of mouse in tail suspension test compared with the blank group (in words)” value [6] does the source give for `C[C@H]1CC[C@@]2(OC1)O[C@H]1C[C@H]3[C@@H]4CC[C@@H]5C[C@@H](O)CC[C@]5(C)[C@H]4CC[C@]3(C)[C@H]1[C@@H]2C` [sarsasapogenin, reference compound] here?
Answer: The value was “could not significantly reduce the immobility time”.

Question: What about the “effect on immobility time of mice in forced swimming test compared with the blank group (in words)” value [4] of the same compound?
Answer: The value was “could not significantly reduce the immobility time”.

Question: Which “effect on immobility time of mice in forced swimming test compared with the blank group (in words)” value [4] does the source give for `C[C@H](CO)CC[C@H]1O[C@H]2C[C@H]3[C@@H]4CC[C@@H]5C[C@H](NC(=O)NC6CCCCC6)CC[C@]5(C)[C@H]4CC[C@]3(C)[C@H]2[C@@H]1C` [compound C-23] here?
Answer: The value was “certain antidepressant activity”.

Question: With `COC(=O)C1(NC(=O)N[C@@H]2CC[C@@]3(C)[C@H](CC[C@@H]4[C@@H]3CC[C@]3(C)[C@@H]5[C@H](C[C@@H]43)O[C@]3(CC[C@H](C)CO3)[C@H]5C)C2)CCCCC1` [compound C-19] as the compound, how does the “effect on immobility time of mouse in tail suspension test compared with the blank group (in words)” value [6] read?
Answer: Its value is “certain antidepressant activity”.

Question: With `C[C@H]1CC[C@@]2(OC1)O[C@H]1C[C@H]3[C@@H]4CC[C@@H]5C[C@H](NC(=O)NN6CCOCC6)CC[C@]5(C)[C@H]4CC[C@]3(C)[C@H]1[C@@H]2C` [compound C-7] as the compound, how does the “effect on immobility time of mouse in tail suspension test compared with the blank group (in words)” value [6] read?
Answer: The value was “certain antidepressant activity”.

Question: With `C[C@H]1CC[C@@]2(OC1)O[C@H]1C[C@H]3[C@@H]4CC[C@@H]5C[C@H](NC(=O)N(CCNC(=O)CN(C)C)C6CCCCC6)CC[C@]5(C)[C@H]4CC[C@]3(C)[C@H]1[C@@H]2C` [compound C-49] as the compound, how does the bioavailability [7] read?
Answer: The bioavailability was 11.1%.

Question: What about the AUC ([7]; iv, 1 mg/kg) of the same compound?
Answer: Its AUC is 293 ng·h/mL.

Question: And the Cmax ([7]; iv, 1 mg/kg)?
Answer: The Cmax was 285 ng/mL.

Question: What about the Tmax ([7]; iv, 1 mg/kg) of the same compound?
Answer: The Tmax was 0.1 h.

Question: What about the AUC ([7]; po, 100 mg/kg) of the same compound?
Answer: The AUC was 3120 ng·h/mL.

Question: And the Cmax ([7]; po, 100 mg/kg)?
Answer: Its Cmax is 251 ng/mL.

Question: And the Tmax ([7]; po, 100 mg/kg)?
Answer: The Tmax was 2.8 ± 1.1 h.

Question: And the MRT ([7]; po, 100 mg/kg, MRT)?
Answer: The MRT was 13.6 h.

Question: And the half-life ([7]; po, 100 mg/kg, T1/2)?
Answer: Its half-life is 9.7 h.

Question: And the “effect on immobility time of mouse in tail suspension test compared with the blank group (in words)” value [6]?
Answer: Its value is “significantly reduce the immobility time”.

Question: And the “effect on immobility time of mice in forced swimming test compared with the blank group (in words)” value [4]?
Answer: Its value is “significantly reduced the time immobility”.

Question: And the “improvement effect on learning and memory (in words)” value ([8]; 15 mg/kg, three weeks, mice with memory reproduction disorder induced by ethanol)?
Answer: The value was “significant improvement effect”.

Question: What about the “Number of shocked animals” value [8, 9] of the same compound?
Answer: The value was 3*.

Question: And the “Total number of errors (within 5 min)” value [8, 9]?
Answer: Its value is 3**.

Question: And the “Latency period from an open room to a dark room” value ([8]; i.g. once a day for three consecutive weeks, donepezil 1.6 mg/kg, C-49 15 mg/kg, x ± s, n = 10)?
Answer: The value was 215.8 ± 135.8 s.

Question: With `C[C@H]1CC[C@@]2(OC1)O[C@H]1C[C@H]3[C@@H]4CC[C@@H]5C[C@H](NC(=O)N(CCO)C6CCCCC6)CC[C@]5(C)[C@H]4CC[C@]3(C)[C@H]1[C@@H]2C` [compound C-35] as the compound, how does the “effect on immobility time of mouse in tail suspension test compared with the blank group (in words)” value [6] read?
Answer: The value was “significantly reduce the immobility time”.

Question: For `C[C@H]1CC[C@@]2(OC1)O[C@H]1C[C@H]3C4CC[C@@H]5C[C@@H](O[C@@H]6OC(CO)[C@H](O)[C@H](O)C6O)CC[C@]5(C)C4CC[C@]3(C)C1[C@@H]2C` (stereo partly drawn) [timosaponin A1, reference compound], which “effect on immobility time of mouse in tail suspension test compared with the blank group (in words)” value [6] is on record?
Answer: Its value is “could not significantly reduce the immobility time”.

Question: And the “effect on immobility time of mice in forced swimming test compared with the blank group (in words)” value [4]?
Answer: The value was “could not significantly reduce the immobility time”.

Question: For `C[C@H]1CC[C@@]2(OC1)O[C@H]1C[C@H]3[C@@H]4CC[C@@H]5C[C@H](NC(=O)NC6CCC(O)CC6)CC[C@]5(C)[C@H]4CC[C@]3(C)[C@H]1[C@@H]2C` (stereo partly drawn) [compound C-5], which “effect on immobility time of mouse in tail suspension test compared with the blank group (in words)” value [6] is on record?
Answer: Its value is “certain antidepressant activity”.
